According to patent US20260176320A1, “MODULATORS OF G-PROTEIN COUPLED RECEPTORS” (priority 2018, published 2026):
Read-outs that look alike come from different tables or passages of the source.

Assays:
Type in all cases: cell-based
GLP-1R [1] = target: T1, GLP-1R (Homo sapiens, UniProt P43220); assay: HitHunter cAMP assay (GLP-1R); details: cAMP; for Emax: read-out: (Emax) GLP-1R
Outline: (§1)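 Duplicate 22-point, 2-fold agonist titrations applied to receptor-expressing suspension cells in IBMX-containing HBSS; 30 min RT stimulation. Read: luminescent cAMP immunocompetition after O/N dark incubation.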

GIP-R = target: T2, GIP-R (Homo sapiens, UniProt P48546); assay: HitHunter cAMP assay (GIP-R); details: cAMP; for Emax: read-out: (Emax) GIP-R
T2 sequence (P48546 22-466): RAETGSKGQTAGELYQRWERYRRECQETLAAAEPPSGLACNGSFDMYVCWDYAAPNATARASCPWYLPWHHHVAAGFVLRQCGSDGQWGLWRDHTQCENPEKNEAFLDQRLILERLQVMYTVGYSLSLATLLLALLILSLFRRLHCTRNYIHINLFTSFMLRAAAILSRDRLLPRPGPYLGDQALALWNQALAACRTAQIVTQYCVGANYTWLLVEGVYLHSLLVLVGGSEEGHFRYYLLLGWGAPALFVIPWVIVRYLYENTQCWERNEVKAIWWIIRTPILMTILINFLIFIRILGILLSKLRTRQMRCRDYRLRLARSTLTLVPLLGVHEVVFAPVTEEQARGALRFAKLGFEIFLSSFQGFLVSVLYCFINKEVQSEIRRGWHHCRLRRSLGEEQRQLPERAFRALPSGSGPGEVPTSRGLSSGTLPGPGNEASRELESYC
Outline: as §1

GLP-1R [2] = target: T1, GLP-1R; assay: PathHunter β-arrestin assay
Outline: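 Following a 90 min agonist exposure at 37 °C in 0.2% BSA medium, β-arrestin coupling was detected by chemiluminescence after 3 h at room temperature.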

[3] = read-out: EC50 GIP-R/nM, Table 3
[4] = read-out: EC50 GIP-R/nM, Table 3A

T1 sequence (P43220 24-463): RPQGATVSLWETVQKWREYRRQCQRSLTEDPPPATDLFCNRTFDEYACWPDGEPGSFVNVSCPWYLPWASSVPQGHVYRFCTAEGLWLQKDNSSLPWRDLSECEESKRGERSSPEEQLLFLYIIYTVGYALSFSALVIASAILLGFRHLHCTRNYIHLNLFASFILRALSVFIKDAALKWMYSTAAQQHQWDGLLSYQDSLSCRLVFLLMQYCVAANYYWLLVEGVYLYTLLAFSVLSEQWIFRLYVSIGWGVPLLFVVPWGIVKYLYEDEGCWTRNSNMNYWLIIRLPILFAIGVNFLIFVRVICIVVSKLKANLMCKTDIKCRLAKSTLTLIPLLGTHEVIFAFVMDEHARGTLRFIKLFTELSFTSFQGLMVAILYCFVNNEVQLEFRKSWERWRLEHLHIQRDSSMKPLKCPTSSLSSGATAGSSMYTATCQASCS

| Structure (SMILES) | Emax (GLP-1R [1]; Table 3) | Emax (GLP-1R [1]; Table 3A) | EC50 (GLP-1R [1]; read-out: EC50 GLP-1R/nM, Table 3) | EC50 (GLP-1R [1]; read-out: EC50 GLP-1R/nM, Table 3A) | Emax (GIP-R; Table 3) | Emax (GIP-R; Table 3A) | EC50 (GIP-R; [3]) | EC50 (GIP-R; [4]) | EC50 (GLP-1R [2]) | EC50 (GLP-1R [1]; Table 3, read-out: EC50 GLP-1R/nM) | EC50 (GLP-1R [1]; Table 3A, read-out: EC50 GLP-1R/nM) | EC50 (GIP-R; Table 3, read-out: EC50 GIP-R/nM) | EC50 (GIP-R; Table 3A, read-out: EC50 GIP-R/nM) | EC50 (GLP-1R [2]; PathHunter β-arrestin assay, read-out: β-arrestin activity EC50) | EC50 (GLP-1R [1]; EC50 GLP-1R/nM, Table 3) | EC50 (GLP-1R [1]; EC50 GLP-1R/nM, Table 3A) | EC50 (GIP-R; EC50 GIP-R/nM, Table 3) | EC50 (GIP-R; EC50 GIP-R/nM, Table 3A) |
| --- | --- | --- | --- | --- | --- | --- | --- | --- | --- | --- | --- | --- | --- | --- | --- | --- | --- | --- |
| CC[C@H](C)[C@H](NC(=O)[C@H](CO)NC(=O)[C@H](Cc1ccc(O)cc1)NC(=O)[C@H](CC(=O)O)NC(=O)[C@H](CO)NC(=O)[C@@H](NC(=O)[C@H](Cc1ccccc1)NC(=O)[C@@H](NC(=O)CNC(=O)[C@H](CCC(=O)O)NC(=O)CSCC(=O)NCCN1C(=O)c2ccncc2C1=O)[C@@H](C)O)[C@@H](C)O)C(=O)N[C@@H](Cc1ccc(O)cc1)C(=O)N[C@@H](CC(C)C)C(=O)N[C@@H](CC(=O)O)C(=O)N[C@@H](CCCCN)C(=O)N[C@@H](CCC(N)=O)C(=O)N[C@@H](C)C(=O)N[C@@H](C)C(=O)NC(C)(C)C(=O)N[C@@H](CCC(=O)O)C(=O)N[C@@H](Cc1ccccc1)C(=O)N[C@H](C(=O)N[C@@H](CC(N)=O)C(=O)N[C@@H](Cc1c[nH]c2ccccc12)C(=O)N[C@@H](CC(C)C)C(=O)N[C@@H](CC(C)C)C(=O)N[C@@H](C)C(=O)NCC(=O)NCC(=O)N1CCC[C@H]1C(=O)N[C@@H](CO)C(=O)N[C@@H](CO)C(=O)NCC(=O)N[C@@H](C)C(=O)N1CCC[C@H]1C(=O)N1CCC[C@H]1C(=O)N1CCC[C@H]1C(=O)N[C@@H](CO)C(=O)N[C@@H](CCCCN)C(N)=O)C(C)C [Compound 157] | 93 to 95% | 93 to 95% | 1 to 100 nM | 1 to 100 nM | 103 to 105% | 103 to 105% | 0.1 to 10 nM | 0.1 to 10 nM | > 1000 nM | – | – | – | – | – | – | – | – | – |
| CC[C@H](C)[C@H](NC(=O)[C@H](CO)NC(=O)[C@H](Cc1ccc(O)cc1)NC(=O)[C@H](CC(=O)O)NC(=O)[C@H](CO)NC(=O)[C@@H](NC(=O)[C@H](Cc1ccccc1)NC(=O)[C@@H](NC(=O)CNC(=O)[C@H](CCC(=O)O)NC(=O)CSCC(=O)NCCN1C(=O)c2cccc3cccc(c23)C1=O)[C@@H](C)O)[C@@H](C)O)C(=O)N[C@@H](Cc1ccc(O)cc1)C(=O)N[C@@H](CC(C)C)C(=O)N[C@@H](CC(=O)O)C(=O)N[C@@H](CCCCN)C(=O)N[C@@H](CCC(N)=O)C(=O)N[C@@H](C)C(=O)N[C@@H](C)C(=O)NC(C)(C)C(=O)N[C@@H](CCC(=O)O)C(=O)N[C@@H](Cc1ccccc1)C(=O)N[C@H](C(=O)N[C@@H](CC(N)=O)C(=O)N[C@@H](Cc1c[nH]c2ccccc12)C(=O)N[C@@H](CC(C)C)C(=O)N[C@@H](CC(C)C)C(=O)N[C@@H](C)C(=O)NCC(=O)NCC(=O)N1CCC[C@H]1C(=O)N[C@@H](CO)C(=O)N[C@@H](CO)C(=O)NCC(=O)N[C@@H](C)C(=O)N1CCC[C@H]1C(=O)N1CCC[C@H]1C(=O)N1CCC[C@H]1C(=O)N[C@@H](CO)C(=O)N[C@@H](CCCCN)C(N)=O)C(C)C [Compound 158] | 31 to 38% | 31 to 38% | – | – | 104 to 107% | 104 to 107% | – | – | – | 10 to 100 nM | 10 to 100 nM | 0.1 to 1 nM | 0.1 to 1 nM | > 1000 nM | – | – | – | – |
| CC[C@H](C)[C@H](NC(=O)[C@H](CO)NC(=O)[C@H](Cc1ccc(O)cc1)NC(=O)[C@H](CC(=O)O)NC(=O)[C@H](CO)NC(=O)[C@@H](NC(=O)[C@H](Cc1ccccc1)NC(=O)[C@@H](NC(=O)CNC(=O)[C@H](CCC(=O)O)NC(=O)CSCC(=O)NCCN1C(=O)[C@H]2CCCC[C@H]2C1=O)[C@@H](C)O)[C@@H](C)O)C(=O)N[C@@H](Cc1ccc(O)cc1)C(=O)N[C@@H](CC(C)C)C(=O)N[C@@H](CC(=O)O)C(=O)N[C@@H](CCCCN)C(=O)N[C@@H](CCC(N)=O)C(=O)N[C@@H](C)C(=O)N[C@@H](C)C(=O)NC(C)(C)C(=O)N[C@@H](CCC(=O)O)C(=O)N[C@@H](Cc1ccccc1)C(=O)N[C@H](C(=O)N[C@@H](CC(N)=O)C(=O)N[C@@H](Cc1c[nH]c2ccccc12)C(=O)N[C@@H](CC(C)C)C(=O)N[C@@H](CC(C)C)C(=O)N[C@@H](C)C(=O)NCC(=O)NCC(=O)N1CCC[C@H]1C(=O)N[C@@H](CO)C(=O)N[C@@H](CO)C(=O)NCC(=O)N[C@@H](C)C(=O)N1CCC[C@H]1C(=O)N1CCC[C@H]1C(=O)N1CCC[C@H]1C(=O)N[C@@H](CO)C(=O)N[C@@H](CCCCN)C(N)=O)C(C)C [Compound 159] | 87 to 91% | 87 to 91% | – | – | 89 to 92% | 89 to 92% | – | – | > 1000 nM | – | – | – | – | – | 10 to 100 nM | 10 to 100 nM | 1 to 10 nM | 1 to 10 nM |
| CC[C@H](C)[C@H](NC(=O)[C@H](CO)NC(=O)[C@H](Cc1ccc(O)cc1)NC(=O)[C@H](CC(=O)O)NC(=O)[C@H](CO)NC(=O)[C@@H](NC(=O)[C@H](Cc1ccccc1)NC(=O)[C@@H](NC(=O)CNC(=O)[C@H](CCC(=O)O)NC(=O)CSCC(=O)NCCN1C(=O)c2cccnc2C1=O)[C@@H](C)O)[C@@H](C)O)C(=O)N[C@@H](Cc1ccc(O)cc1)C(=O)N[C@@H](CC(C)C)C(=O)N[C@@H](CC(=O)O)C(=O)N[C@@H](CCCCN)C(=O)N[C@@H](CCC(N)=O)C(=O)N[C@@H](C)C(=O)N[C@@H](C)C(=O)NC(C)(C)C(=O)N[C@@H](CCC(=O)O)C(=O)N[C@@H](Cc1ccccc1)C(=O)N[C@H](C(=O)N[C@@H](CC(N)=O)C(=O)N[C@@H](Cc1c[nH]c2ccccc12)C(=O)N[C@@H](CC(C)C)C(=O)N[C@@H](CC(C)C)C(=O)N[C@@H](C)C(=O)NCC(=O)NCC(=O)N1CCC[C@H]1C(=O)N[C@@H](CO)C(=O)N[C@@H](CO)C(=O)NCC(=O)N[C@@H](C)C(=O)N1CCC[C@H]1C(=O)N1CCC[C@H]1C(=O)N1CCC[C@H]1C(=O)N[C@@H](CO)C(=O)N[C@@H](CCCCN)C(N)=O)C(C)C [Compound 160] | 85 to 95% | 85 to 95% | – | – | 109 to 113% | 109 to 113% | – | – | > 1000 nM | – | – | – | – | – | 1 to 10 nM | 1 to 10 nM | 0.1 to 1 nM | 0.1 to 1 nM |
| CC[C@H](C)[C@H](NC(=O)[C@H](CO)NC(=O)[C@H](Cc1ccc(O)cc1)NC(=O)[C@H](CC(=O)O)NC(=O)[C@H](CO)NC(=O)[C@@H](NC(=O)[C@H](Cc1ccccc1)NC(=O)[C@@H](NC(=O)CNC(=O)[C@H](CCC(=O)O)NC(=O)CSCC(=O)NCCN1C(=O)c2ccc(Cl)cc2C1=O)[C@@H](C)O)[C@@H](C)O)C(=O)N[C@@H](Cc1ccc(O)cc1)C(=O)N[C@@H](CC(C)C)C(=O)N[C@@H](CC(=O)O)C(=O)N[C@@H](CCCCN)C(=O)N[C@@H](CCC(N)=O)C(=O)N[C@@H](C)C(=O)N[C@@H](C)C(=O)NC(C)(C)C(=O)N[C@@H](CCC(=O)O)C(=O)N[C@@H](Cc1ccccc1)C(=O)N[C@H](C(=O)N[C@@H](CC(N)=O)C(=O)N[C@@H](Cc1c[nH]c2ccccc12)C(=O)N[C@@H](CC(C)C)C(=O)N[C@@H](CC(C)C)C(=O)N[C@@H](C)C(=O)NCC(=O)NCC(=O)N1CCC[C@H]1C(=O)N[C@@H](CO)C(=O)N[C@@H](CO)C(=O)NCC(=O)N[C@@H](C)C(=O)N1CCC[C@H]1C(=O)N1CCC[C@H]1C(=O)N1CCC[C@H]1C(=O)N[C@@H](CO)C(=O)N[C@@H](CCCCN)C(N)=O)C(C)C [Compound 161] | 89 to 101% | 89 to 101% | – | – | 58 to 107% | 58 to 107% | 1 to 100 nM | 1 to 100 nM | > 1000 nM | – | – | – | – | – | 10 to 100 nM | 10 to 100 nM | – | – |
| CC[C@H](C)[C@H](NC(=O)[C@H](CO)NC(=O)[C@H](Cc1ccc(O)cc1)NC(=O)[C@H](CC(=O)O)NC(=O)[C@H](CO)NC(=O)[C@@H](NC(=O)[C@H](Cc1ccccc1)NC(=O)[C@@H](NC(=O)CNC(=O)[C@H](CCC(=O)O)NC(=O)CSCC(=O)NCCN1C(=O)c2cccc(Cl)c2C1=O)[C@@H](C)O)[C@@H](C)O)C(=O)N[C@@H](Cc1ccc(O)cc1)C(=O)N[C@@H](CC(C)C)C(=O)N[C@@H](CC(=O)O)C(=O)N[C@@H](CCCCN)C(=O)N[C@@H](CCC(N)=O)C(=O)N[C@@H](C)C(=O)N[C@@H](C)C(=O)NC(C)(C)C(=O)N[C@@H](CCC(=O)O)C(=O)N[C@@H](Cc1ccccc1)C(=O)N[C@H](C(=O)N[C@@H](CC(N)=O)C(=O)N[C@@H](Cc1c[nH]c2ccccc12)C(=O)N[C@@H](CC(C)C)C(=O)N[C@@H](CC(C)C)C(=O)N[C@@H](C)C(=O)NCC(=O)NCC(=O)N1CCC[C@H]1C(=O)N[C@@H](CO)C(=O)N[C@@H](CO)C(=O)NCC(=O)N[C@@H](C)C(=O)N1CCC[C@H]1C(=O)N1CCC[C@H]1C(=O)N1CCC[C@H]1C(=O)N[C@@H](CO)C(=O)N[C@@H](CCCCN)C(N)=O)C(C)C [Compound 162] | 42 to 46% | 42 to 46% | – | – | 103 to 107% | 103 to 107% | 0.1 to 10 nM | 0.1 to 10 nM | > 1000 nM | – | – | – | – | – | 10 to 100 nM | 10 to 100 nM | – | – |
